Data taken from ChEMBL document CHEMBL1201862, “PubChem BioAssay data set” (2004).
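Assay format: 96-well plates, 48-hour exposure. Here, GI50 denotes the concentration required for 50% inhibition of growth.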 Active and inactive are the calls of the source. Rule as the data show it: active = GI50 up to about 1.1 µM and inactive = higher.

How the values were obtained:
Assay in all cases: DTP human tumour cell line panel, 48 h
786-0 = system: 786-0
A549 = system: A549
CCRF-CEM = system: CCRF-CEM
EKVX = system: EKVX
HOP-62 = system: HOP-62
KM12 = system: KM12
LOX IMVI = system: LOX IMVI
MCF7 = system: MCF7
Malme-3M = system: Malme-3M
NCI-H522 = system: NCI-H522
RPMI-8226 = system: RPMI-8226
SF-268 = system: SF-268
SF-295 = system: SF-295
SK-MEL-28 = system: SK-MEL-28
SK-MEL-5 = system: SK-MEL-5
SNB-19 = system: SNB-19
T47D = system: T47D
TK-10 = system: TK-10
UACC-257 = system: UACC-257
UACC-62 = system: UACC-62

Row | SMILES | GI50 (786-0) | GI50 (A549) | GI50 (CCRF-CEM) | GI50 (EKVX) | GI50 (HOP-62) | GI50 (KM12) | GI50 (LOX IMVI) | GI50 (MCF7) | GI50 (Malme-3M) | GI50 (NCI-H522) | GI50 (RPMI-8226) | GI50 (SF-268) | GI50 (SF-295) | GI50 (SK-MEL-28) | GI50 (SK-MEL-5) | GI50 (SNB-19) | GI50 (T47D) | GI50 (TK-10) | GI50 (UACC-257) | GI50 (UACC-62)
1 | COC(=O)Cc1c(-c2[nH]c3ccccc3c2CC(=O)OC)[nH]c2ccccc12 | 33.7 µM (inactive) | > 52.6 µM (inactive) | > 25.2 µM (inactive) | 39.4 µM (inactive) | 23.2 µM (inactive) | 26.3 µM (inactive) | > 58.6 µM (inactive) | > 41.1 µM (inactive) | > 55.6 µM (inactive) | > 28.6 µM (inactive) | > 37.7 µM (inactive) | 20.4 µM (inactive) | > 57.9 µM (inactive) | > 55 µM (inactive) | > 52.7 µM (inactive) | 53.5 µM (inactive) | 2.13 µM (inactive) | > 53.2 µM (inactive) | > 56.1 µM (inactive) | > 49 µM (inactive)
2 | CC(C)NC(=O)CN1CCN(C2=CC(=O)c3c(O)ccc(O)c3C2=O)CC1 | 16.4 µM (inactive) | 16.4 µM (inactive) | 8.65 µM (inactive) | 19.3 µM (inactive) | 18.2 µM (inactive) | 16.6 µM (inactive) | 6.1 µM (inactive) | 2.71 µM (inactive) | 2.22 µM (inactive) | 18.2 µM (inactive) | 24.9 µM (inactive) | 24.3 µM (inactive) | 15.6 µM (inactive) | 17.1 µM (inactive) | 2.58 µM (inactive) | 18.7 µM (inactive) | 8.69 µM (inactive) | 17.1 µM (inactive) | 7.18 µM (inactive) | 5.18 µM (inactive)
3 | N=c1oc2cc(O)ccc2cc1C(=O)Nc1cccc2ccccc12 | 3.45 µM (inactive) | 5.37 µM (inactive) | 2.35 µM (inactive) | 4.32 µM (inactive) | 11.3 µM (inactive) | 3.75 µM (inactive) | 4.86 µM (inactive) | 3.93 µM (inactive) | 0.883 µM (active) | 1.65 µM (inactive) | 4.45 µM (inactive) | 3.61 µM (inactive) | 5.18 µM (inactive) | 6.34 µM (inactive) | 4.23 µM (inactive) | 4.68 µM (inactive) | 3.5 µM (inactive) | 2.69 µM (inactive) | 9.08 µM (inactive) | 3.23 µM (inactive)
4 | COc1ccc2nc3cc(Cl)ccc3c(Nc3ccc(O)c(CN4CCN(C)CC4)c3)c2c1 | 1.5 µM (inactive) | 1.87 µM (inactive) | 0.276 µM (active) | 1.74 µM (inactive) | 2.06 µM (inactive) | 1.91 µM (inactive) | 1.71 µM (inactive) | 1.64 µM (inactive) | 1.79 µM (inactive) | 1.78 µM (inactive) | 1.9 µM (inactive) | 2.28 µM (inactive) | 1.91 µM (inactive) | 1.92 µM (inactive) | 1.73 µM (inactive) | 2.43 µM (inactive) | 2.09 µM (inactive) | 1.97 µM (inactive) | 1.86 µM (inactive) | 1.72 µM (inactive)
5 | CC(C)Cn1cnnc1NS(=O)(=O)c1cc(C(=O)NN)c(Cl)cc1S | > 10 µM (inactive) | > 10 µM (inactive) | > 10 µM (inactive) | > 10 µM (inactive) | > 10 µM (inactive) | > 10 µM (inactive) | > 10 µM (inactive) | > 10 µM (inactive) | > 10 µM (inactive) | > 10 µM (inactive) | > 10 µM (inactive) | > 10 µM (inactive) | > 10 µM (inactive) | > 10 µM (inactive) | > 10 µM (inactive) | > 10 µM (inactive) | > 10 µM (inactive) | > 10 µM (inactive) | > 10 µM (inactive) | > 10 µM (inactive)
6 | NC1=Nc2ccccc2Sc2nncn21 | > 100 µM (inactive) | > 100 µM (inactive) | > 100 µM (inactive) | > 100 µM (inactive) | > 100 µM (inactive) | > 100 µM (inactive) | > 100 µM (inactive) | > 100 µM (inactive) | > 100 µM (inactive) | 77.6 µM (inactive) | > 100 µM (inactive) | > 100 µM (inactive) | > 100 µM (inactive) | > 100 µM (inactive) | > 100 µM (inactive) | > 100 µM (inactive) | > 100 µM (inactive) | > 100 µM (inactive) | > 100 µM (inactive) | > 100 µM (inactive)
7 | O=C1C=C(C2=C(C3=CC(=O)c4ccccc4C3=O)C(=O)c3ccccc3C2=O)C(=O)c2ccccc21 | 2.9 µM (inactive) | 9.48 µM (inactive) | 0.286 µM (active) | 11.1 µM (inactive) | 14.8 µM (inactive) | 7 µM (inactive) | 3.36 µM (inactive) | 7.69 µM (inactive) | 2.11 µM (inactive) | 2.17 µM (inactive) | 3.48 µM (inactive) | 12.6 µM (inactive) | 16.1 µM (inactive) | 14 µM (inactive) | 9.4 µM (inactive) | 14.4 µM (inactive) | 6.19 µM (inactive) | 6.21 µM (inactive) | 10.5 µM (inactive) | 15.1 µM (inactive)
8 | C[N+]12CCCCC1C(CN1C(=O)c3ccccc3C1=O)CCC2 (stereo not given) | > 100 µM (inactive) | > 100 µM (inactive) | > 100 µM (inactive) | > 100 µM (inactive) | > 100 µM (inactive) | > 100 µM (inactive) | > 100 µM (inactive) | > 100 µM (inactive) | > 100 µM (inactive) | > 100 µM (inactive) | > 100 µM (inactive) | > 100 µM (inactive) | > 100 µM (inactive) | > 100 µM (inactive) | > 100 µM (inactive) | > 100 µM (inactive) | > 100 µM (inactive) | > 100 µM (inactive) | > 100 µM (inactive) | > 100 µM (inactive)
9 | COc1cc(S(=O)(=O)Nc2ccc(-c3csc(/N=C\C=C\c4ccccc4)n3)cc2)ccc1Cl | > 100 µM (inactive) | 80.5 µM (inactive) | 17.5 µM (inactive) | 36.9 µM (inactive) | 43 µM (inactive) | 84.5 µM (inactive) | 29.6 µM (inactive) | 36.1 µM (inactive) | 37.4 µM (inactive) | 24.5 µM (inactive) | 27.3 µM (inactive) | 29.9 µM (inactive) | 74.5 µM (inactive) | > 100 µM (inactive) | 38.3 µM (inactive) | 84.3 µM (inactive) | 26.6 µM (inactive) | 42.2 µM (inactive) | 7.76 µM (inactive) | 37.9 µM (inactive)
